The test system of data set [1] is T1, C. trachomatis L2/434/Bu expressing GFP (CTL2-GFP).
T1 construct: L2/434/Bu GFP intracellular growth in HeLa cells
Kind of data set: microbe, parasite or virus in culture. Details: C. trachomatis total inclusion area by high-content imaging, normalised to DMSO. The conditions noted are these: Chlamydia trachomatis, HeLa, 28.5 h; total inclusion area; read-out: % of control remaining. Summed up: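 Infected cells treated with library compounds were read for bulk GFP (chlamydial growth) and resorufin fluorescence (host viability), then fixed, Hoechst-stained and imaged. Inclusion area and number from GFP, plus nuclei counts, served as additional growth and viability proxies; MICs derived as previously described.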

The test system of data set [2] is T2, CTL2-GFP (C. trachomatis L2/434/Bu, GFP-expressing).
T2 construct: L2/434/Bu, GFP-expressing
Kind of data set: microbe, parasite or virus in culture. Details: Intracellular C. trachomatis growth in HeLa cells, bulk GFP fluorescence relative to DMSO. As to conditions: Chlamydia trachomatis, HeLa, 28.5 h; bulk GFP, mean of 2; read-out: % of control remaining. As to the method:
MICs were calculated as described above.

The nature of data set [3]: in vitro. Details: Viability of infected HeLa host cells, resazurin conversion, bulk resorufin fluorescence relative to DMSO. The conditions noted are these: human, hela cells; bulk resorufin, mean of 2.
Data set [4] is described as follows: in vitro. As to conditions: human, hela cells, % viability.

Consider `N=c1c2c(-c3ccccc3)c(-c3ccccc3)n(Cc3ccccc3)c2ncn1CCN1CCOCC1` [CBK268537], for which, in data set [1], the activity at 1 µM came out at 119%, the activity at 5 µM is 66.8% and the activity at 10 µM turned out to be 34.6%. Besides, in data set [2], the activity at 1 µM came out at 123%, the activity at 5 µM worked out at 83% and the activity at 10 µM amounted to 70.7%. Also, in “in vitro [3]”, the viability at 28.5 h, 1 µM was 94.8%; the viability at 28.5 h, 5 µM amounted to 97.8%; the viability at 28.5 h, 10 µM turned out to be 93.4%. The viability at 28.5 h, 10 µM in the data set “in vitro [4]” is 92%.
Take `COc1ccc(C2CC(=O)C=C(Nc3cc(Cl)ccc3O)C2)cc1` (stereo not shown) [CBK263542]: in data set [1], the activity at 1 µM turned out to be 81.9%, the activity at 5 µM came out at 0.174% and the activity at 10 µM came out at 3.14%. Also, in data set [2], the activity at 1 µM worked out at 86%, the activity at 5 µM was 0% and the activity at 10 µM was determined as 9.05%. Further, in “in vitro [3]”, the viability at 28.5 h, 1 µM came to 90.9%; the viability at 28.5 h, 5 µM worked out at 101%; the viability at 28.5 h, 10 µM was determined as 87.8%. Further, in “in vitro [4]”, the viability at 28.5 h, 10 µM is 105%.
`Cc1cc(C)nc(NS(=O)(=O)c2ccc(NC(=O)N3c4ccccc4Sc4ccccc43)cc2)n1` [CBK263922]: in data set [1], the activity at 1 µM was 112%, the activity at 5 µM turned out to be 51.2% and the activity at 10 µM amounted to 28.5%. In addition, in data set [2], the activity at 1 µM is 115%, the activity at 5 µM came out at 67.1% and the activity at 10 µM was 28.2%. Moreover, in “in vitro [3]”, the viability at 28.5 h, 1 µM was 92.3%; the viability at 28.5 h, 5 µM is 90.2%; the viability at 28.5 h, 10 µM was 89.4%. In the data set “in vitro [4]”, the viability at 28.5 h, 10 µM is 101%.
Turning to `c1ccc2c3c([nH]c2c1)C1(CCN(CCC2CCCCC2)C1)OCC3` (stereo not shown) [CBK061789], in data set [1], the activity at 1 µM stood at 51.4%, the activity at 5 µM amounted to 5.37% and the activity at 10 µM stood at 3.22%. In data set [2], the activity at 1 µM stood at 168%, the activity at 5 µM amounted to 72.4% and the activity at 10 µM was determined as 23.7%. Further, in the data set “in vitro [3]”, the viability at 28.5 h, 1 µM is 92.9%; the viability at 28.5 h, 5 µM turned out to be 90%; the viability at 28.5 h, 10 µM was 84.9%. In the data set “in vitro [4]”, the viability at 28.5 h, 10 µM is 83.3%.
Take `COc1cccc(CNC(C(=O)O)c2ccc3c(c2)OCO3)c1` (stereo not shown) [CBK015420D]: in data set [1], the activity at 1 µM was 103%, the activity at 5 µM turned out to be 49.9% and the activity at 10 µM is 20.3%. In data set [2], the activity at 1 µM was determined as 107%, the activity at 5 µM turned out to be 30.9% and the activity at 10 µM worked out at 12.5%. In addition, in “in vitro [3]”, the viability at 28.5 h, 1 µM was determined as 92.7%; the viability at 28.5 h, 5 µM came out at 92.5%; the viability at 28.5 h, 10 µM was 87.4%.
`O=C(CSCc1ccc(Cl)cc1)Nc1ccc(S(=O)(=O)N2CCCCCC2)cc1` [CBK267017]: in data set [1], the activity at 1 µM was 92.3%, the activity at 5 µM was determined as 104% and the activity at 10 µM worked out at 54.9%. In data set [2], the activity at 1 µM is 99.4%, the activity at 5 µM amounted to 85% and the activity at 10 µM worked out at 60.7%. Moreover, in the data set “in vitro [3]”, the viability at 28.5 h, 1 µM was 101%; the viability at 28.5 h, 5 µM is 104%; the viability at 28.5 h, 10 µM was found to be 104%.
As for `Cc1ccc(CNC(=O)OCc2cccnc2C)o1` [CBK200131], in data set [1], the activity at 1 µM is 120%, the activity at 5 µM came to 61.9% and the activity at 10 µM came to 91.2%. In addition, in data set [2], the activity at 1 µM is 120%, the activity at 5 µM is 111% and the activity at 10 µM is 119%. In the data set “in vitro [3]”, the viability at 28.5 h, 1 µM came out at 102%; the viability at 28.5 h, 5 µM was 104%; the viability at 28.5 h, 10 µM was determined as 101%.
For `Cc1ccc(C(=O)/C=C\Nc2ccc(S(=O)(=O)Nc3cc(C)nc(C)n3)cc2)cc1` [CBK264384], in data set [1], the activity at 1 µM stood at 79.2%, the activity at 5 µM was found to be 51.7% and the activity at 10 µM was 35.8%. In data set [2], the activity at 1 µM is 110%, the activity at 5 µM stood at 72.4% and the activity at 10 µM came to 31.8%. Also, in the data set “in vitro [3]”, the viability at 28.5 h, 1 µM was 107%; the viability at 28.5 h, 5 µM is 108%; the viability at 28.5 h, 10 µM stood at 104%.
Consider `Cc1cccc(N(C)S(=O)(=O)c2ccc(N3CCCNCC3)c3ccccc23)c1C` [CBK004430C], for which, in data set [1], the activity at 1 µM is 121%, the activity at 5 µM is 56.7% and the activity at 10 µM came to 8.36%. Also, in data set [2], the activity at 1 µM was 142%, the activity at 5 µM was determined as 95.8% and the activity at 10 µM turned out to be 45.1%. In “in vitro [3]”, the viability at 28.5 h, 1 µM stood at 89.7%; the viability at 28.5 h, 5 µM is 84.9%; the viability at 28.5 h, 10 µM came out at 88.8%.
Consider `O=C(O)c1cn(C2CC2)c2cc(N3CCN(C(=O)Cc4ccccc4Cl)CC3)c(F)cc2c1=O` [CBK297136], for which, in data set [1], the activity at 1 µM was 145%, the activity at 5 µM came to 74.4% and the activity at 10 µM stood at 16.8%. In data set [2], the activity at 1 µM was 153%, the activity at 5 µM was 90.9% and the activity at 10 µM was 28.4%. Further, in “in vitro [3]”, the viability at 28.5 h, 1 µM worked out at 88.5%; the viability at 28.5 h, 5 µM is 89.1%; the viability at 28.5 h, 10 µM came out at 93.4%.
In the case of `COc1ccc2[nH]cc(CCNC(=O)c3ccc(Cl)c(Cl)c3)c2c1` [CBK115870], in data set [1], the activity at 1 µM came to 109%, the activity at 5 µM is 78.8% and the activity at 10 µM is 40.9%. In addition, in data set [2], the activity at 1 µM was 132%, the activity at 5 µM is 66.5% and the activity at 10 µM amounted to 33.8%. Besides, in “in vitro [3]”, the viability at 28.5 h, 1 µM was 93.3%; the viability at 28.5 h, 5 µM came out at 88.8%; the viability at 28.5 h, 10 µM is 92.1%.
`Cn1nnnc1-c1cccc(NC(=O)c2ccc(Oc3ccccc3)cc2)c1` [CBK297872]: in data set [1], the activity at 1 µM is 118%, the activity at 5 µM was found to be 74.5% and the activity at 10 µM came to 30.8%. Besides, in data set [2], the activity at 1 µM is 124%, the activity at 5 µM was found to be 73.3% and the activity at 10 µM stood at 27.8%. Also, in “in vitro [3]”, the viability at 28.5 h, 1 µM was 95.1%; the viability at 28.5 h, 5 µM amounted to 88.4%; the viability at 28.5 h, 10 µM turned out to be 89.1%.
On to `O=C(O)c1[nH]c2ccccc2c1C(c1ccsc1)c1c(C(=O)O)[nH]c2ccccc12` [CBK267811], for which, in data set [1], the activity at 1 µM is 49.5%, the activity at 5 µM was determined as 80.4% and the activity at 10 µM stood at 22.6%. Besides, in data set [2], the activity at 1 µM stood at 113%, the activity at 5 µM was 109% and the activity at 10 µM is 85.2%. Moreover, in “in vitro [3]”, the viability at 28.5 h, 1 µM is 99.3%; the viability at 28.5 h, 5 µM was found to be 106%; the viability at 28.5 h, 10 µM turned out to be 121%.
As for `COc1cc(C=C2SC(NCC(=O)O)=NC2=O)ccc1OCc1ccc(Cl)cc1Cl` [CBK297555], in data set [1], the activity at 1 µM came to 110%, the activity at 5 µM turned out to be 86.9% and the activity at 10 µM was determined as 44%. Moreover, in data set [2], the activity at 1 µM is 135%, the activity at 5 µM amounted to 155% and the activity at 10 µM stood at 200%. Moreover, in “in vitro [3]”, the viability at 28.5 h, 1 µM came out at 88.5%; the viability at 28.5 h, 5 µM turned out to be 92.1%; the viability at 28.5 h, 10 µM was 88.9%.
In the case of `Cn1cncc1C(=O)NCc1ccccc1` [CBK200199], in data set [1], the activity at 1 µM stood at 111%, the activity at 5 µM was determined as 106% and the activity at 10 µM amounted to 69.3%. Also, in data set [2], the activity at 1 µM was found to be 95.8%, the activity at 5 µM was 109% and the activity at 10 µM amounted to 110%. In addition, in “in vitro [3]”, the viability at 28.5 h, 1 µM came to 114%; the viability at 28.5 h, 5 µM stood at 107%; the viability at 28.5 h, 10 µM amounted to 104%.
For `c1ccc(-c2nc3cc4ccccc4cc3[nH]2)nc1` [CBK000130], in data set [1], the activity at 1 µM was found to be 98.2%, the activity at 5 µM came to 31.5% and the activity at 10 µM turned out to be 14.1%. In data set [2], the activity at 1 µM was 133%, the activity at 5 µM stood at 40.2% and the activity at 10 µM was determined as 18.3%. Moreover, in the data set “in vitro [3]”, the viability at 28.5 h, 1 µM came to 99.1%; the viability at 28.5 h, 5 µM was 95.7%; the viability at 28.5 h, 10 µM was 90.5%.
In the case of `OC(CN1CCOCC1)Cn1c(-c2ccccc2)c(-c2ccccc2)c2ccc3ccccc3c21` (stereo not shown) [CBK263996G], in data set [1], the activity at 1 µM came out at 101%, the activity at 5 µM amounted to 73.2% and the activity at 10 µM came to 61.6%. In addition, in data set [2], the activity at 1 µM worked out at 113%, the activity at 5 µM turned out to be 96.6% and the activity at 10 µM turned out to be 91.1%. In the data set “in vitro [3]”, the viability at 28.5 h, 1 µM is 90.5%; the viability at 28.5 h, 5 µM came out at 92.4%; the viability at 28.5 h, 10 µM was 89.5%.
For the molecule `CCCCCC(=O)Nc1ccc(S(=O)(=O)Nc2nnc(CC)s2)cc1` [CBK045478], in data set [1], the activity at 1 µM turned out to be 122%, the activity at 5 µM stood at 53% and the activity at 10 µM is 48.9%. Also, in data set [2], the activity at 1 µM amounted to 137%, the activity at 5 µM is 47.1% and the activity at 10 µM worked out at 29.6%. In the data set “in vitro [3]”, the viability at 28.5 h, 1 µM is 94.8%; the viability at 28.5 h, 5 µM came out at 93.6%; the viability at 28.5 h, 10 µM worked out at 91.2%.

For the origin of these results see article PMC12040169 (PLOS Biology, 2025).
